Results from ChEMBL document CHEMBL1201862, “PubChem BioAssay data set” (2004).
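Tested at 5 concentrations; 48 h exposure; 96-well plates; endpoints linearly interpolated, else capped at highest concentration. The concentration for 50% growth inhibition is given as GI50.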 Activity calls are given as the source filed them. Cut-off read from the data, not from the text of the source: active = GI50 up to about 1.1 µM and inactive = higher.

Legend:
Test in all cases: NCI anticancer screen, dose series, 48 h
[1] = system: A498
[2] = system: NCI-H23
[3] = system: SK-MEL-5
[4] = system: SNB-19
[5] = system: CAKI-1
[6] = system: A549
[7] = system: SF-295
[8] = system: SK-MEL-2
[9] = system: U-251
[10] = system: SW-620
[11] = system: HCC 2998
[12] = system: UACC-257
[13] = system: CCRF-CEM
[14] = system: HOP-62
[15] = system: XF498
[16] = system: M19-MEL
[17] = system: LOX IMVI
[18] = system: IGROV-1
[19] = system: OVCAR-3
[20] = system: K562
[21] = system: SNB-75
[22] = system: NCI/ADR-RES
[23] = system: HOP-92
[24] = system: UO-31
[25] = system: Malme-3M
[26] = system: UACC-62
[27] = system: HCT-15
[28] = system: DMS-114
[29] = system: SK-MEL-28
[30] = system: HT-29
[31] = system: SF-268
[32] = system: DMS-273
[33] = system: SK-OV-3
[34] = system: EKVX
[35] = system: KM-20L2
[36] = system: HCT-116
[37] = system: RPMI-8226
[38] = system: KM12
[39] = system: SNB-78
[40] = system: SF-539
[41] = system: COLO 205
[42] = system: DLD-1
[43] = system: HL-60
[44] = system: MCF7
[45] = system: NCI-H226
[46] = system: NCI-H460
[47] = system: OVCAR-8
[48] = system: OVCAR-4
[49] = system: NCI-H522
[50] = system: RXF 393
[51] = system: OVCAR-5
[52] = system: MOLT-4
[53] = system: SN12C
[54] = system: HOP-18

CN(C)C(=O)N(CCCl)N=O
GI50 [1]: > 100 µM (inactive) | GI50 [2]: > 100 µM (inactive) | GI50 [3]: > 100 µM (inactive) | GI50 [4]: > 100 µM (inactive) | GI50 [5]: > 100 µM (inactive) | GI50 [6]: > 100 µM (inactive) | GI50 [7]: > 100 µM (inactive) | GI50 [8]: > 100 µM (inactive) | GI50 [9]: > 100 µM (inactive) | GI50 [10]: > 100 µM (inactive) | GI50 [11]: > 100 µM (inactive) | GI50 [12]: > 100 µM (inactive) | GI50 [13]: > 100 µM (inactive) | GI50 [14]: > 100 µM (inactive) | GI50 [15]: > 81.1 µM (inactive) | GI50 [16]: > 100 µM (inactive) | GI50 [17]: > 100 µM (inactive) | GI50 [18]: > 100 µM (inactive) | GI50 [19]: > 100 µM (inactive) | GI50 [20]: > 100 µM (inactive) | GI50 [21]: > 63.7 µM (inactive) | GI50 [22]: > 100 µM (inactive) | GI50 [23]: > 100 µM (inactive) | GI50 [24]: > 100 µM (inactive) | GI50 [25]: > 100 µM (inactive) | GI50 [26]: > 100 µM (inactive) | GI50 [27]: > 100 µM | GI50 [28]: > 100 µM (inactive) | GI50 [29]: > 100 µM (inactive) | GI50 [30]: > 100 µM (inactive) | GI50 [31]: > 100 µM (inactive) | GI50 [32]: > 100 µM (inactive) | GI50 [33]: > 100 µM (inactive) | GI50 [34]: > 100 µM (inactive) | GI50 [35]: > 100 µM (inactive) | GI50 [36]: > 100 µM (inactive) | GI50 [37]: > 100 µM (inactive) | GI50 [38]: > 100 µM (inactive) | GI50 [39]: > 100 µM (inactive) | GI50 [40]: > 100 µM (inactive) | GI50 [41]: > 100 µM (inactive) | GI50 [42]: > 100 µM (inactive) | GI50 [43]: > 100 µM (inactive) | GI50 [44]: > 100 µM (inactive) | GI50 [45]: > 10 µM (inactive) | GI50 [46]: > 100 µM (inactive) | GI50 [47]: > 100 µM (inactive) | GI50 [48]: > 100 µM (inactive) | GI50 [49]: > 100 µM (inactive) | GI50 [50]: > 100 µM (inactive) | GI50 [51]: > 100 µM (inactive) | GI50 [52]: > 100 µM (inactive) | GI50 [53]: > 100 µM (inactive) | GI50 [54]: > 100 µM (inactive)
